The results in this text go back to ChEMBL document CHEMBL1125188, “Synthesis and evaluation of stilbene and dihydrostilbene derivatives as potential anticancer agents that inhibit tubulin polymerization” (J Med Chem, 1991).

Type in all cases: functional
Common to all, as to conditions: Homo sapiens, read-out: ED50 (the source's name)

Test [1] relates to HT-29. Put plainly: Cytotoxic concentration required to inhibit 50% cell growth in HT-29 colon adenocarcinoma cell lines.
Test [2] concerns MLM. Put plainly: Cytotoxic concentration required to inhibit 50% cell growth in MLM melanoma cell lines.
Test [3] relates to MCF7. The test is described as follows: Cytotoxic concentration required to inhibit 50% cell growth in MCF-7 breast carcinoma cell lines.
Test [4] relates to SK-MEL-5. Put plainly: Cytotoxic concentration required to inhibit 50% cell growth in SKMEL-5 melanoma cell lines.
Test [5] has as its system A549. Put plainly: Cytotoxic concentration required to inhibit 50% cell growth in A-549 lung carcinoma cell lines.

Take `COc1cc(CCc2ccc(N)cc2)cc(OC)c1OC`: the EC50 in test [1] is 24.6 µM; in test [2], more than 25 µM; in test [3], 11.9 µM; in test [4], 12.7 µM; in test [5] it was 12.2 µM.
With `COc1cc(/C=C/c2ccc([N+](=O)[O-])cc2)cc(OC)c1OC`, the EC50 in test [1], in test [2], in test [3], in test [4] and in test [5] was more than 25 µM each time.
Consider `COc1ccc(NC(=O)c2cc(OC)cc(OC)c2)cc1`, for which the EC50 in test [1] was 14.5 µM; in test [2] it was more than 25 µM; in test [3], 5.47 µM; in test [4], 11.9 µM; in test [5], 9.02 µM.
With `COc1cc(/C=C/c2ccc(OC)c(OC)c2OC)cc(OC)c1OC`, the EC50 in test [1] was found to be 10.3 µM; in test [2], 23.9 µM; in test [3], 14.7 µM; in test [4] it was 10.6 µM; in test [5] it was 12.5 µM.
The corresponding values for `COc1cc(/C=C/c2ccc(Cl)cc2)cc(OC)c1OC` are more than 25 µM, more than 25 µM, more than 25 µM, more than 25 µM and more than 25 µM.
On the same counts, the results for `COc1cc(CNc2cc(OC)c(OC)c(OC)c2)cc(OC)c1OC` are more than 25 µM, more than 25 µM, more than 25 µM, more than 25 µM and more than 25 µM.
In the case of `COc1cc(CCc2cc(OC)c(OC)c(OC)c2)cc(OC)c1`, the EC50 in test [1], in test [2], in test [3], in test [4] and in test [5] was more than 25 µM throughout.
As to `COc1ccc(/C=C\c2ccc(OC)c(OC)c2OC)cc1`, the EC50 in test [1] was determined as 1 µM; in test [2], 10.9 µM; in test [3] it was 0.23 µM; in test [4] it was 1.1 µM; in test [5] it was 0.97 µM.
`COc1cc(CCc2ccncc2)cc(OC)c1OC`: the EC50 in test [1], in test [2], in test [3], in test [4] and in test [5] was more than 25 µM each time.
Take `COc1cccc(/C=C/c2cc(OC)c(OC)c(OC)c2)c1`: the EC50 was 7.3 µM in test [1]; more than 25 µM in test [2]; 12.2 µM in test [3]; 0.5 µM in test [4]; 9.8 µM in test [5].
On to `COc1cc(/C=C\c2cccnc2)cc(OC)c1OC`, for which the EC50 is 9.8 µM in test [1]; more than 25 µM in test [2]; 14.7 µM in test [3]; 6 µM in test [4]; 13.7 µM in test [5].
`COc1cc(/C=C/c2ccc(O)cc2)cc(OC)c1OC`: the EC50 in test [1] is more than 25 µM; in test [2], 24.2 µM; in test [3], 18.6 µM; in test [4], 11.6 µM; in test [5] it was more than 25 µM.
Take `COc1ccc(/C=C/c2ccccc2)c(OC)c1OC`: the EC50 in test [1], in test [2], in test [3], in test [4] and in test [5] was more than 25 µM in each case.
Turning to `COc1cc(/C=C/c2cc(OC)c(OC)c(OC)c2)cc(OC)c1`, the EC50 in test [1], in test [2], in test [3], in test [4] and in test [5] was more than 25 µM throughout.
Regarding `COc1ccc(CCc2ccccc2)c(OC)c1OC`, the EC50 in test [1], in test [2], in test [3], in test [4] and in test [5] was more than 25 µM throughout.
For `COc1ccc(CCc2ccccc2)cc1OC`, the EC50 in test [1], in test [2], in test [3], in test [4] and in test [5] was more than 25 µM each time.
As for `COc1cc(CCc2ccc(NC(C)=O)cc2)cc(OC)c1OC`, the EC50 in test [1], in test [2], in test [3], in test [4] and in test [5] was more than 25 µM each time.
In the case of `COc1ccccc1CCc1cc(OC)c(OC)c(OC)c1`, the EC50 in test [1] is more than 25 µM; in test [2] it was more than 25 µM; in test [3], 11.8 µM; in test [4] it was 20 µM; in test [5], 13.5 µM.
Consider `COc1cc(/C=C/c2ccccn2)cc(OC)c1OC`, for which the EC50 in test [1], in test [2], in test [3], in test [4] and in test [5] was more than 25 µM throughout.
In the case of `COc1cc(/C=C/c2ccncc2)cc(OC)c1OC`, the EC50 in test [1], in test [2], in test [3], in test [4] and in test [5] was more than 25 µM each time.
As for `COc1ccc(CNc2cc(OC)c(OC)c(OC)c2)cc1OC`, the EC50 in test [1], in test [2], in test [3], in test [4] and in test [5] was more than 25 µM throughout.
`COc1ccc(C(=O)Nc2cc(OC)c(OC)c(OC)c2)cc1OC`: the EC50 in test [1], in test [2], in test [3], in test [4] and in test [5] was more than 25 µM in each case.
Turning to `COc1cc(OC)c(OC)cc1/C=C/c1cc(OC)c(OC)c(OC)c1`, the EC50 in test [1], in test [2], in test [3], in test [4] and in test [5] was more than 25 µM throughout.
`COc1cc(OC)c(/C=C/c2ccccc2)c(OC)c1`: the EC50 in test [1], in test [2], in test [3], in test [4] and in test [5] was more than 25 µM throughout.
Turning to `COc1cccc(CCc2cc(OC)c(OC)c(OC)c2)c1`, the EC50 in test [1] was 7.6 µM; in test [2] it was more than 25 µM; in test [3], 12.4 µM; in test [4], 9.2 µM; in test [5] it was 11.7 µM.
On the same counts, the results for `COc1ccc(/C=C/c2ccccc2)cc1OC` are more than 25 µM, more than 25 µM, more than 25 µM, more than 25 µM and more than 25 µM.
On to `COc1ccccc1/C=C\c1cc(OC)c(OC)c(OC)c1`, for which the EC50 in test [1] worked out at 0.87 µM; in test [2] it was 8.6 µM; in test [3], 1.3 µM; in test [4], 1.2 µM; in test [5] it was 1.1 µM.
Take `COc1cc(/C=C/c2ccccc2)cc(OC)c1OC`: the EC50 in test [1], in test [2], in test [3], in test [4] and in test [5] was more than 25 µM each time.
On to `COc1ccc(C(=O)Nc2cc(OC)cc(OC)c2)cc1`, for which the EC50 in test [1], in test [2], in test [3], in test [4] and in test [5] was more than 25 µM each time.
`COc1ccc(/C=C\c2cc(OC)c(OC)c(OC)c2)cc1O` [COMBRETASTATIN A4]: the figures for the EC50 in test [1], in test [2] and in test [3] were 1.2e-05 µM, 1.4e-05 µM and 3.8e-06 µM, respectively.
As to `COc1cc(CCc2ccccc2)cc(OC)c1OC`, the EC50 in test [1], in test [2], in test [3], in test [4] and in test [5] was more than 25 µM throughout.
Take `COc1cc(/C=C/c2cc(OC)c(OC)c(OC)c2)cc(OC)c1OC`: the EC50 in test [1], in test [2], in test [3], in test [4] and in test [5] was more than 25 µM throughout.
For the compound `COc1ccc(NC(=O)c2cc(OC)c(OC)c(OC)c2)cc1`, the EC50 in test [1] was 22.7 µM; in test [2] it was more than 25 µM; in test [3] it was 12.2 µM; in test [4] it was more than 25 µM; in test [5], 14.1 µM.
Regarding `COc1ccc(/C=C/c2cc(OC)c(OC)c(OC)c2)c(Cl)c1`, the EC50 in test [1], in test [2], in test [3], in test [4] and in test [5] was more than 25 µM in each case.
For the compound `COc1cc(CCc2ccc(O)cc2)cc(OC)c1OC`, the EC50 in test [1], in test [2], in test [3], in test [4] and in test [5] was more than 25 µM each time.
Turning to `COc1cc(OC)c(OC)cc1CCc1cc(OC)c(OC)c(OC)c1`, the EC50 in test [1], in test [2], in test [3], in test [4] and in test [5] was more than 25 µM in each case.
Take `COc1cc(/C=C\c2ccc(O[Si](C)(C)C(C)(C)C)cc2)cc(OC)c1OC`: the EC50 amounted to 10.6 µM in test [1]; 17.2 µM in test [2]; 7.29 µM in test [3]; 7.59 µM in test [4]; 11 µM in test [5].
The corresponding values for `COc1cc(NC(=O)c2cc(OC)c(OC)c(OC)c2)cc(OC)c1OC` are more than 25 µM, more than 25 µM, more than 25 µM, more than 25 µM and more than 25 µM.
On the same counts, the results for `COc1cc(CCc2ccc(OC(C)=O)cc2)cc(OC)c1OC` are more than 25 µM, more than 25 µM, more than 25 µM, more than 25 µM and 19 µM.
With `COc1cc(/C=C/c2ccc(Br)cc2)cc(OC)c1OC`, the EC50 is 12.7 µM in test [1]; 5.13 µM in test [2]; 9.14 µM in test [3]; 6.53 µM in test [4]; 6.47 µM in test [5].
For `COc1cc(CCc2ccc(OC)c(OC)c2OC)cc(OC)c1OC`, the EC50 in test [1], in test [2], in test [3], in test [4] and in test [5] was more than 25 µM in each case.
